In US20030153618A1, “Treatment and prevention of herpes simplex infections” (priority 1999, published 2003):
“And” between values parts separate entries of the source, which are not always exact repeats. Equal entries are not always repeated.

System: HSV, Type II
Test: Direct plaque-forming unit (PFU) count in BSC cells in defined media with set lysine (or derivative):arginine ratio
Type: cell-based
Conditions: for Plaque Forming Unit Count, Average: average of experiments 1-6; for P.F.U. Count: average of three tests
Procedure: Absorbed virons were absorbed in susceptible cells in chemically defined media and the number of plaques made were counted. (See Davis, B. D., et al., Microbiology, 2nd Ed., Harper & Row, 1973, Part V, and sources cited therein for procedural details and discussion of the plaque method.)
The cell line chosen was green monkey kidney cells (BSC) that have been passed greater than 41 times. […] The virons were added to a confluent lawn of BSC cells and allowed to absorb at 25° C. for one hour. The unabsorbed virons and the media were removed by washing three times in PBS. […] The control media contained a lysine/arginine ratio of 1:1. The plaques were counted when easily readable. Flasks are done in triplicate.

| SMILES | Plaque Forming Unit Count, Average (Lysine:Arginine Ratio 1:1 (control media)) | Plaque Forming Unit Count (Lysine:Arginine Ratio 1:1 (control media), single experiment) | Plaque Forming Unit Count, Average (Lysine:Arginine Ratio 500:1) | P.F.U. Count (Compound Ratio to Arginine 10:1) | P.F.U. Count (Compound Ratio to Arginine 100:1) |
| --- | --- | --- | --- | --- | --- |
| NCCCC[C@H](N)C(=O)O [Lysine, lysine, reference compound] | 738 | 814 and 594 and 631 and 621 and 936 and 781 | 12 |  |  |
| CC(N)CCCCC(N)C(=O)O (centres unmarked) [drawing 15] |  |  |  | <5 | <5 |
